Data taken from PubChem BioAssay AID330 (DTP/NCI, 2004).
Where “and” joins values, the source holds several entries; their conditions need not be identical. Equal values may be shown once. Inconclusive results and toxic doses are left out. Rule for the calls: active = survival T/C of 150% or more; inactive = T/C below 125% in these data. Peptide text beside a SMILES is read from it.

System: P388 leukemia ip, CD2F1 mice, survival T/C
Assay: NCI In Vivo Anticancer Drug Screen. Data for tumor model P388 Leukemia (intraperitoneal) in CD2F1 (CDF1) mice
Settings: endpoint: median survival time, higher = longer survival
Summary of the method: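 Mice carrying the transplanted tumor received test compound or vehicle. Survival was recorded in each group, and the value is the treated-group measurement divided by that of the vehicle-treated control group.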

[1] = dose: 50.0 mg/kg/injection, schedule: Q01DX005 (ip), vehicle: Klucel (hydroxypropylcellulose) (HPC)
[2] = dose: 100.0 mg/kg/injection, schedule: Q01DX005 (ip), vehicle: Klucel (hydroxypropylcellulose) (HPC)
[3] = dose: 200.0 mg/kg/injection, schedule: Q01DX005 (ip), vehicle: Klucel (hydroxypropylcellulose) (HPC)
[4] = dose: 25.0 mg/kg/injection, schedule: Q01DX009 (ip), vehicle: saline with Tween-80
[5] = dose: 50.0 mg/kg/injection, schedule: Q01DX009 (ip), vehicle: saline with Tween-80
[6] = dose: 100.0 mg/kg/injection, schedule: Q01DX009 (ip), vehicle: saline with Tween-80
[7] = dose: 50.0 mg/kg/injection, schedule: Q01DX005 (ip), vehicle: saline with Tween-80
[8] = dose: 100.0 mg/kg/injection, schedule: Q01DX005 (ip), vehicle: saline with Tween-80
[9] = dose: 200.0 mg/kg/injection, schedule: Q01DX005 (ip), vehicle: saline with Tween-80
[10] = dose: 12.5 mg/kg/injection, schedule: Q01DX009 (ip), vehicle: saline with Tween-80
[11] = dose: 25.0 mg/kg/injection, schedule: Q01DX005 (ip), vehicle: saline with Tween-80
[12] = dose: 12.5 mg/kg/injection, schedule: Q01DX009 (ip), vehicle: Klucel (hydroxypropylcellulose) (HPC)
[13] = dose: 25.0 mg/kg/injection, schedule: Q01DX009 (ip), vehicle: Klucel (hydroxypropylcellulose) (HPC)
[14] = dose: 50.0 mg/kg/injection, schedule: Q01DX009 (ip), vehicle: Klucel (hydroxypropylcellulose) (HPC)
[15] = dose: 200.0 mg/kg/injection, schedule: Q01DX009 (ip), vehicle: saline with Tween-80

Measured: T/C

Cc1csc2ncnc(N)c12
inactive: dose: 50.0 mg/kg/injection, schedule: Q04DX003 (ip), vehicle: Klucel (hydroxypropylcellulose) (HPC) 106 % of control | dose: 100.0 mg/kg/injection, schedule: Q04DX003 (ip), vehicle: Klucel (hydroxypropylcellulose) (HPC) 115 % of control | dose: 200.0 mg/kg/injection, schedule: Q04DX003 (ip), vehicle: Klucel (hydroxypropylcellulose) (HPC) 108 % of control

CC(C)(O)c1cc(=O)n(-c2ccccc2)[nH]1
inactive: [1] 102 % of control | [2] 101 % of control | [3] 105 % of control

Cc1cc(O)c(NCCCN(C)C)c2c(=O)c3ccccc3sc12
inactive: [4] 97 % of control | [5] 93 % of control | [6] 110 % of control

COC1=C(c2c[nH]c3ccc(CC=C(C)C)cc23)C(=O)C(OC)=C(c2c[nH]c3ccc(CC=C(C)C)cc23)C1=O
inactive: [7] 89 % of control | [8] 89 % of control | [9] 94 % of control

COC(=O)C(Sc1ccc(Cl)cc1)C1SC(=S)N(C)C1=O (centres undefined)
inactive: [10] 96 % of control | [4] 116 % of control and 88 % of control | [5] 104 % of control and 112 % of control | [6] 103 % of control and 107 % of control

CCCCCCCCCCCC1=c2o[nH]c2=C(c2ccccn2)C(=O)C1=O
inactive: [7] 94 % of control | [8] 86 % of control

Nn1cnc2nc[nH]c2c1=O
inactive: dose: 100.0 mg/kg/injection, schedule: Q01DX001 (ip), vehicle: saline with Tween-80 101 % of control | dose: 200.0 mg/kg/injection, schedule: Q01DX001 (ip), vehicle: saline with Tween-80 104 % of control | dose: 400.0 mg/kg/injection, schedule: Q01DX001 (ip), vehicle: saline with Tween-80 95 % of control

CC1(C)CC(=O)c2c(oc3cc4c5c(oc4cc23)CC(C)(C)CC5=O)C1
inactive: dose: 12.5 mg/kg/injection, schedule: Q01DX005 (ip), vehicle: saline with Tween-80 90 % of control | [11] 91 % of control | [8] 87 % of control | [9] 92 % of control

O=C(O)CC(CC(=O)c1ccccc1)c1ccccc1 (centres undefined)
inactive: [12] 104 % of control | [13] 101 % of control | [14] 103 % of control and 108 % of control | dose: 100.0 mg/kg/injection, schedule: Q01DX009 (ip), vehicle: Klucel (hydroxypropylcellulose) (HPC) 101 % of control and 102 % of control and 107 % of control | dose: 200.0 mg/kg/injection, schedule: Q01DX009 (ip), vehicle: Klucel (hydroxypropylcellulose) (HPC) 104 % of control and 94 % of control | dose: 400.0 mg/kg/injection, schedule: Q01DX009 (ip), vehicle: Klucel (hydroxypropylcellulose) (HPC) 104 % of control and 93 % of control

C/C(=N/NC(N)=S)C1CCC2C3CCC4CCCCC4(C)C3CC(O)C12C (centres undefined)
inactive: [10] 101 % of control | [4] 93 % of control | [5] 92 % of control

NC(Cc1cnc[nH]1)C(=O)NC(CO)C(=O)O (stereo not drawn) (H-His-Ser-OH; configuration not given here)
inactive: dose: 60.0 mg/kg/injection, schedule: Q01DX005 (ip), vehicle: saline 96 % of control | dose: 120.0 mg/kg/injection, schedule: Q01DX005 (ip), vehicle: saline 99 % of control | dose: 240.0 mg/kg/injection, schedule: Q01DX005 (ip), vehicle: saline 100 % of control

CC1(C)SC=C2C1=CSC2(C)C
inactive: [7] 101 % of control | [8] 96 % of control | [9] 95 % of control

CCN(CC)CCSC1CC2CC(C1C)C2(C)C (centres undefined)
inactive: [1] 99 % of control | [2] 109 % of control | [3] 104 % of control

COc1ccc(NC(=O)NNC(N)=S)cc1
inactive: [5] 96 % of control | [6] 91 % of control

O=NNc1nc(-c2ccccn2)nc2ccccc12
inactive: dose: 3.12 mg/kg/injection, schedule: Q01DX009 (ip), vehicle: DMSO 109 % of control | dose: 6.25 mg/kg/injection, schedule: Q01DX009 (ip), vehicle: DMSO 94 % of control | dose: 12.5 mg/kg/injection, schedule: Q01DX009 (ip), vehicle: DMSO 105 % of control | dose: 25.0 mg/kg/injection, schedule: Q01DX009 (ip), vehicle: DMSO 102 % of control

OC(C(c1ccccc1)c1ccccn1)(C(F)(F)F)C(F)(F)F (centres undefined)
inactive: dose: 100.0 mg/kg/injection, schedule: Q04DX003 (ip), vehicle: saline with Tween-80 100 % of control | dose: 200.0 mg/kg/injection, schedule: Q04DX003 (ip), vehicle: saline with Tween-80 95 % of control | dose: 400.0 mg/kg/injection, schedule: Q04DX003 (ip), vehicle: saline with Tween-80 95 % of control

C=C=C(COC(C)=O)ON1CCOCC1
inactive: dose: 100.0 mg/kg/injection, schedule: Q01DX001 (ip), vehicle: saline 99 % of control | dose: 200.0 mg/kg/injection, schedule: Q01DX001 (ip), vehicle: saline 103 % of control | dose: 400.0 mg/kg/injection, schedule: Q01DX001 (ip), vehicle: saline 100 % of control

C[C@@]12N[C@H]3S[C@]1(C)c1ccccc1N2C[C@@H]3C#N
inactive: [11] 99 % of control | [7] 86 % of control and 94 % of control | [8] 96 % of control

C/C(=N\N=C(N)N)c1cnc(N)nc1C
inactive: dose: 60.0 mg/kg/injection, schedule: Q01DX005 (ip), vehicle: Klucel (hydroxypropylcellulose) (HPC) 98 % of control | dose: 120.0 mg/kg/injection, schedule: Q01DX005 (ip), vehicle: Klucel (hydroxypropylcellulose) (HPC) 97 % of control | dose: 240.0 mg/kg/injection, schedule: Q01DX005 (ip), vehicle: Klucel (hydroxypropylcellulose) (HPC) 100 % of control

Cn1/c(=N\N=C\c2ccccc2OCCO)sc2ccccc21
inactive: dose: 50.0 mg/kg/injection, schedule: Q01DX009 (ip), vehicle: saline + alcohol 103 % of control | dose: 100.0 mg/kg/injection, schedule: Q01DX009 (ip), vehicle: saline + alcohol 100 % of control | dose: 200.0 mg/kg/injection, schedule: Q01DX009 (ip), vehicle: saline + alcohol 101 % of control

CCCOSSOCCC
inactive: [4] 103 % of control | [5] 100 % of control | [6] 99 % of control

Cc1ncc([N+](=O)[O-])n1CCOC(=O)c1ccc(F)cc1
inactive: [5] 99 % of control | [6] 92 % of control | [15] 97 % of control

CCOC(=O)c1c[nH]c2cc(Cl)ccc2c1=O
inactive: [5] 93 % of control | [6] 98 % of control | [15] 93 % of control

CCc1ccc2nc3ccccc3c(NCCCCCCNc3c4ccccc4nc4ccc(CC)cc34)c2c1
inactive: dose: 0.62 mg/kg/injection, schedule: Q01DX009 (ip), vehicle: other 100 % of control | dose: 1.25 mg/kg/injection, schedule: Q01DX009 (ip), vehicle: other 114 % of control | dose: 2.5 mg/kg/injection, schedule: Q01DX009 (ip), vehicle: other 105 % of control | dose: 5.0 mg/kg/injection, schedule: Q01DX009 (ip), vehicle: other 116 % of control | dose: 10.0 mg/kg/injection, schedule: Q01DX009 (ip), vehicle: other 124 % of control

CCCc1c(C(=O)OCC)c(-c2ccccc2)c(CCC)c2c1-c1cccc3cccc-2c13
inactive: [5] 99 % of control | [6] 95 % of control | [15] 92 % of control

Cc1cccc(-n2c(-c3ccc(Cl)cc3)cs/c2=N\Nc2nnc(-c3ccccc3)c(-c3ccccc3)n2)c1
inactive: dose: 100.0 mg/kg/injection, schedule: Q04DX002 (ip), vehicle: saline with Tween-80 88 % of control | dose: 200.0 mg/kg/injection, schedule: Q04DX002 (ip), vehicle: saline with Tween-80 87 % of control | dose: 400.0 mg/kg/injection, schedule: Q04DX002 (ip), vehicle: saline with Tween-80 89 % of control

CC1(C)c2ccccc2N2C(c3ccccc3)=NN(c3ccccc3)C21C (centres undefined)
inactive: dose: 60.0 mg/kg/injection, schedule: Q01DX005 (ip), vehicle: saline with Tween-80 100 % of control | dose: 120.0 mg/kg/injection, schedule: Q01DX005 (ip), vehicle: saline with Tween-80 100 % of control

O=C1C=CC2(CC(O)OC3=C2C(=O)c2oc4cc(O)c(O)cc4c2C3=O)O1 (centres undefined)
inactive: dose: 10.0 mg/kg/injection, schedule: Q01DX009 (ip), vehicle: Klucel (hydroxypropylcellulose) (HPC) 102 % of control | dose: 20.0 mg/kg/injection, schedule: Q01DX009 (ip), vehicle: Klucel (hydroxypropylcellulose) (HPC) 109 % of control | dose: 40.0 mg/kg/injection, schedule: Q01DX009 (ip), vehicle: Klucel (hydroxypropylcellulose) (HPC) 105 % of control | dose: 80.0 mg/kg/injection, schedule: Q01DX009 (ip), vehicle: Klucel (hydroxypropylcellulose) (HPC) 111 % of control

O=C(/C=C/c1cccnc1)/C=C/c1cccnc1
inactive: dose: 6.25 mg/kg/injection, schedule: Q01DX009 (ip), vehicle: Klucel (hydroxypropylcellulose) (HPC) 122 % of control | [12] 124 % of control | [13] 124 % of control | [14] 120 % of control
